The results in this text go back to PubChem BioAssay (NCI).

Several values for one entry are separate records, joined by “and”; a condition that tells them apart may be missing. Equal entries are not always repeated.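 Each compound was tested at five concentrations against cells in 96-well plates for 48 hours. GI50 = concentration required for 50% inhibition of growth. Definition used: TGI = concentration required for complete inhibition of growth.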

Holding throughout (assay): growth of human tumour cells (NCI), 48 h
Assay [1] concerns SK-MEL-28 melanoma.
The subject of assay [2] is OVCAR-3 ovarian.
Assay [3] deals with SR leukemia.
Assay [4] concerns HCT-15 colon.
Assay [5] relates to LOX IMVI melanoma.
Assay [6] has as its system NCI-H460 lung.
For assay [7], the system named is SNB-19 CNS.
In assay [8] the test system is A498 renal.
Assay [9] concerns SF-295 CNS.
For assay [10], the system named is HOP-92 NSCLC.

As for `COc1cc2nc(C)nc(N[C@H](C)c3cc(N)cc(C(F)(F)F)c3)c2cc1O[C@H]1CCOC1`, the GI50 in assay [1] is 16 µM; in [2], 15.6 µM; in assay [3], 2.25 µM; in assay [4], 12.6 µM; in assay [5], 12.2 µM; in [6], 18.5 µM. For the same molecule, the GI50 was 12.7 µM in assay [7], 0.109 µM in assay [8], 11.6 µM in assay [9] and 0.0623 µM in assay [10]. For the same molecule, the TGI in [1] turned out to be 29.6 µM; in assay [2] it was 38.4 µM; in assay [3] it was 29.2 µM; in assay [4], 27.6 µM; in [5], 28.1 µM; in [6], 36.6 µM. Further, the TGI in assay [7] came to 27.4 µM; in assay [8] it was 7.84 µM; in [9], 24.8 µM; in assay [10], 7.31 µM.

For the molecule `CN(C)CCCNC1=C(Cl)C(=O)c2ccccc2C1=O`, the GI50 in [1] was 1.88 µM; in [2] it was 1.69 µM; in assay [3], 2.8 µM; in assay [4], 1.76 µM; in [5], 1.61 µM; in assay [6], 8.61 µM. In addition, the GI50 in assay [7] was 1.76 µM; in [8], 12.7 µM; in assay [9], 7.23 µM; in [10], 2.86 µM. The TGI was determined as 3.41 µM in assay [1]; 3.17 µM in assay [2]; 7.61 µM in assay [3]; 4.09 µM in assay [4]; 3.17 µM in assay [5]; 25.2 µM in assay [6]. Further, the TGI was 3.28 µM in [7], 25.4 µM in assay [8], 21.4 µM in [9] and 12.3 µM in [10].

Regarding `CNC(=O)c1ccccc1Nc1nc(Nc2ccc(N3CCOCC3)cc2OC)ncc1Cl`, the GI50 in assay [1] is 1.35 µM; in assay [2], 1.73 µM; in [3], 0.0251 µM; in assay [4], 0.542 µM; in [5], 0.401 µM; in assay [6], 0.361 µM. Further, the GI50 in assay [7] is 2.05 µM; in assay [8] it was 0.488 µM; in assay [9], 0.503 µM; in assay [10] it was 0.0571 µM. Moreover, the TGI in assay [1] is > 37.1 µM; in [2], > 53.3 µM; in assay [3] it was 3.25 µM; in [4] it was > 40.8 µM; in assay [5], 3.17 µM; in assay [6], > 34.4 µM. Besides, the TGI in assay [7] was > 100 µM; in [8] it was 2.39 µM; in assay [9] it was 11.1 µM; in assay [10], 1.03 µM.

As for `C=C(CNCCO)[C@@H]1CC[C@]2(CO)CC[C@]3(C)[C@H](CC[C@@H]4[C@@]5(C)CCC(N)C(C)(C)[C@@H]5CC[C@]43C)[C@@H]12` (stereo partly specified), the GI50 in assay [1] is 1.96 µM; in assay [2], 7.71 µM; in assay [3] it was 1.9 µM; in assay [4], 5.57 µM; in [5] it was 1.7 µM; in assay [6], 1.94 µM. Besides, the GI50 in [7] was 2.27 µM; in assay [8], 9.55 µM; in [9], 1.73 µM; in [10] it was 1.29 µM. Also, the TGI is 3.6 µM in assay [1]; 20.7 µM in [2]; 5.22 µM in [3]; 19 µM in [4]; 3.2 µM in assay [5]; 4.12 µM in assay [6]. The TGI was determined as 5.23 µM in assay [7], 22.6 µM in assay [8], 3.52 µM in assay [9] and 2.76 µM in assay [10].

On to `CC1(C)OC(=O)C(=Cc2ccc(O)cc2)C(=O)O1`, for which the TGI in assay [1], in assay [2], in assay [3], in assay [4], in [5] and in assay [6] was > 100 µM in each case. The TGI in [7], in assay [8], in assay [9] and in assay [10] was > 100 µM throughout.

In the case of `COc1ccc(NC(=O)c2cc(OC)cc(OC)c2)cc1`, the TGI in assay [1] is > 100 µM; in [2] it was > 48.6 µM; in [3] it was > 100 µM; in assay [4], > 100 µM; in [5] it was > 100 µM; in assay [6], > 100 µM. Besides, the TGI in assay [7] was > 100 µM; in [8] it was > 100 µM; in assay [9], > 64.5 µM; in [10], > 100 µM.

Take `C[C@@H](CS(C)(=O)=O)Nc1ncc2cc(Oc3ccc(F)cc3F)c(=O)n(C)c2n1`: the GI50 in assay [1], in assay [2], in assay [3], in assay [4], in assay [5] and in [6] was > 25 µM each time. Also, the GI50 was > 25 µM in assay [7], > 25 µM in assay [8], > 25 µM in [9] and > 6.75 µM in assay [10]. Also, the TGI in [1], in assay [2], in assay [3], in assay [4], in [5] and in [6] was > 25 µM throughout. Moreover, the TGI in assay [7], in [8], in assay [9] and in [10] was > 25 µM each time.

Take `COC(=O)[C@@H](C)C[C@H](Cc1ccc(F)cc1)NC(=O)c1csc([C@@H](C[C@H](C(C)C)N(C)C(=O)[C@@H](NC(=O)[C@H]2CCCCN2C)C(C)C)OC(C)=O)n1`: the GI50 in [1] is > 16.7 µM; in assay [3], 0.000437 µM and 0.00167 µM; in [5] it was 0.00184 µM and 0.0095 µM; in [6] it was 0.000678 µM and 0.0063 µM; in assay [8] it was 0.00469 µM and 0.0202 µM; in [10] it was 0.215 µM and 0.0783 µM. Further, the TGI in assay [1] is > 16.7 µM; in assay [2], 0.00216 µM and 0.012 µM; in assay [3], > 16.7 µM; in assay [4], > 16.7 µM; in assay [5], > 16.7 µM; in [6], > 16.7 µM. For the same molecule, the TGI in [7] is > 16.7 µM; in [8], 0.111 µM; in assay [9] it was > 16.7 µM; in assay [10] it was 11.8 µM.
